Publication PMC9723630 (2022)
Blank lines part the entries; values can stand above or below the molecule they belong to.

Assays:
[1] = test system: QD2-l (DNA, G4) GGTTGGCGCGAAGCATTCGCGGGTTGG; assay: ITC; details: K+ (20 mM potassium phosphate, 100 mM KCl; 120 mM K+), pH 7.0, 5% DMSO, 40 °C, site 1 of 2
[2] = test system: QD3-sbl (DNA, G4) TTAGGTGGGTAGGGTGGGCTAGTCATTTTGACTAGG; assay: ITC; details: K+ (20 mM potassium phosphate, 100 mM KCl; 120 mM K+), pH 7.0, 5% DMSO, 40 °C
[3] = test system: D3-HP (DNA, hairpin) CTAGTCATTTTGACTAG; assay: ITC; details: K+ (20 mM potassium phosphate, 100 mM KCl; 120 mM K+), pH 7.0, 5% DMSO, 40 °C
[4] = test system: Q3-sbl (DNA, G4) TTAGGGTGGTAGGGTGGGGAAGG; assay: ITC; details: K+ (20 mM potassium phosphate, 100 mM KCl; 120 mM K+), pH 7.0, 5% DMSO, 40 °C
[5] = test system: Q3-sbl2 (DNA, G4) TTAGGTGGGTAGGGTGGGTGTG; assay: NMR titration; details: K+ (10 mM potassium phosphate); pH 7.0, 30 °C, 0.75 mM DNA; stacks on 5'-tetrad
[6] = test system: QD3-sbl (DNA, G4) TTAGGTGGGTAGGGTGGGCTAGTCATTTTGACTAGG; assay: NMR titration and solution structure; details: K+ (10 mM potassium phosphate for structure; 120 mM K+ for titration); pH 7.0, 30 °C titration; intercalation at quadruplex-duplex junction, slow exchange
[7] = test system: QD2-l (DNA, G4) GGTTGGCGCGAAGCATTCGCGGGTTGG; assay: CD melting at 295 nm; details: K+ (10 mM potassium phosphate), pH 7.0, 5 µM DNA, 1:1 ligand (5 µM), free Tm 50.3 °C
[8] = test system: QD2-l-2bp (DNA, G4) GGTTGGCGGCACGGGTTGG; assay: ITC; details: K+ (20 mM potassium phosphate, 100 mM KCl; 120 mM K+); pH 7.0, 5% DMSO, 40 °C; site 1 of 2
[9] = test system: D2-HP (DNA, hairpin) CGCGAAGCATTCGCG; assay: ITC; details: K+ (20 mM potassium phosphate, 100 mM KCl; 120 mM K+); pH 7.0, 5% DMSO, 40 °C
[10] = test system: TBA (DNA, G4) GGTTGGTGTGGTTGG; assay: ITC; details: K+ (20 mM potassium phosphate, 100 mM KCl; 120 mM K+); pH 7.0, 5% DMSO, 40 °C

SMILES: CCOCCCNC(=O)c1ccc(-c2c3cccc(C)c3[n+](C)c3c2[nH]c2c(C)cccc23)cc1
Ka [1]: 2.6e+06 ± 700000 M⁻¹

SMILES: CN(C)CCN1C(=O)c2ccc3c4c(ccc(c24)C1=O)C(=O)N(CCN(C)C)C3=O
Ka ([2]; authors: competing sites may not be separated): 120000 ± 25000 M⁻¹
Ka [3]: 72000 ± 23000 M⁻¹
Ka [4]: 95000 ± 11000 M⁻¹

SMILES: C[n+]1cc(NC(=O)c2ccc3ccc4ccc(C(=O)Nc5cc6ccccc6[n+](C)c5)nc4c3n2)cc2ccccc21
binding [5]: yes
binding [6]: yes
Tm increase ([7]; complex 74 °C): ~ 24 °C

SMILES: CN(C)c1ccc(Nc2c3ccc(NC(=O)CCN4CCCC4)cc3nc3cc(NC(=O)CCN4CCCC4)ccc23)cc1
Ka ([2]; site 1 of 2, authors: competing sites may not be separated): 1.4e+07 ± 6.1e+06 M⁻¹
Ka ([3]; site 1 of 2): 2.9e+06 ± 690000 M⁻¹
Ka ([4]; site 1 of 2): 3e+07 ± 2.3e+06 M⁻¹

SMILES: CCN(CC)CCCNC(=O)c1ccc(-c2c3cccc(C)c3[n+](C)c3c2[nH]c2c(C)cccc23)cc1
Ka [8]: 7.1e+06 ± 77000 M⁻¹
Ka ([1]; Table S13 prints error 1.4×10^6): 8.3e+06 ± 120000 M⁻¹
Ka ([2]; site 1 of 2): 1.3e+07 ± 2.9e+06 M⁻¹
Ka [3]: 16000 ± 2200 M⁻¹
Ka [9]: 45000 ± 14000 M⁻¹
Tm increase [7]: ~ 13 °C
Ka [10]: 26000 ± 8600 M⁻¹
Ka ([4]; site 1 of 2): 3.2e+06 ± 1.4e+06 M⁻¹

Now from value to molecule:

Ka [1]: 7.9e+06 ± 900000 M⁻¹
SMILES: Cc1cccc2c1[nH]c1c(-c3ccc(C(=O)NCCCN(C)CCCN)cc3)c3cccc(C)c3[n+](C)c12

Ka ([2]; site 1 of 2): 1.1e+06 ± 27000 M⁻¹
Ka [3]: 41000 ± 2700 M⁻¹
Ka [4]: 170000 ± 67000 M⁻¹
SMILES: CN1C(=Cc2cc[n+](C)c3ccccc23)Sc2ccccc21

Ka ([2]; site 1 of 2): 1.1e+07 ± 3.3e+06 M⁻¹
Ka ([3]; site 1 of 2): 1.3e+06 ± 120000 M⁻¹
Tm increase [7]: ~ 5 °C
Ka ([4]; site 1 of 2): 2.1e+06 ± 610000 M⁻¹
SMILES: CN(C)CCCNc1c2ccccc2nc2c1[nH]c1ccccc12
